Read-outs that look alike come from different tables or passages of the source.
Legend:
HAC15 cells = experiment: Steroid profile by LC/MS-MS in HAC15 cells; format: cell-based, Human; conditions: 0.5 μM
Description: Human adrenocortical carcinoma HAC15 and mouse corticotroph AtT20 cells were used, purchased as a kind gift by Dr. W. Rainey, and obtained from Dr. J. Tooze (European Organization for Molecular Biology), respectively. Both cell lines were cultured in 75 cm^2 flasks at 37° C. in a humidified incubator (Greiner Bio-One, Alphen a/d Rijn, the Netherlands) at 5% CO2. Dulbecco's Modified Eagle Medium F12 containing 5% fetal calf serum was used for HAC15, whereas AtT20 cells were cultured in Dulbecco's minimal essential medium (DMEM) supplemented with 10% fetal calf serum. Both mediums were supplemented with L-glutamine (2 mmol/L) and penicillin (10^5 U/L). Short tandem repeat (str) profiling using a Powerplex Kit (Promega, Leiden, the Netherlands) of HAC15 and AtT20 gave results consistent with the ATCC database, confirming the identity of both cell lines. Medium and supplements were obtained from Invitrogen, Breda, the Netherlands. Once a week, cells were harvested with trypsin (0.05%)-EDTA (0.53 mM) and resuspended in culture medium. Levoketoconazole (COR-003) and racemic ketoconazole (both from Cortendo AB) were dissolved in absolute ethanol (EtOH), according to manufacturer's instructions, and stored at −20° C. at a stock concentration of […]. At the start of each experiment, both drugs were freshly prepared and diluted in EtOH in the correct concentrations. Synacten (synthetic ACTH, Novartis Pharma A.G.) stock concentration was stored at 4° C. and dissolved in culture medium at the day of use. The final concentrations of ACTH were chosen based on a dose-response curve in HAC15 cells and previously reported studies in the literature. For HAC15, 200,000 and 100,000 cells were plated in 0.5 ml medium in 24 well plates for experiments of 1 and 3 days, respectively. For AtT20, cell amounts were 100,000 and 30,000. One day after seeding the HAC15 cells, the medium was refreshed and cells were treated 1 or 3 days in quadruplicate with levoketoconazole or racemic ketoconazole (0.05-5 μM), with or without 10 nM ACTH. To study effects of both compounds on pituitary AtT20 cells, concentrations of 0.1 to 10 μM of both drugs were used. Controls were vehicle treated. […] Media were collected after 1 or 3 days of incubation and stored at −20° C. until analysis. All cell culture experiments were carried out at least twice.
(§1) Cortisol concentrations were measured in the supernatant using a chemiluminescence immunoassay system (Immulite 2000XPi; Siemens DPC Inc., Los Angeles, Calif., USA). In addition, we carried out multi-steroid analysis by liquid chromatography/mass spectrometry (LC/MS-MS) to accurately quantify androstenedione, corticosterone, cortisol, 11-deoxycortisol, DHEA, DHEAS, progesterone, 17-hydroxyprogesterone, and testosterone. Concentrations that were tested on the LC/MS-MS were closest to 50% inhibition or maximal inhibition of cortisol as determined by the immunoassay. Steroids were quantified with respect to a calibration series, with internal standards. Steroids were quantified on a Xevo TQS LC-MS/MS (Waters Chromatography).
(§2) Statistical analysis was performed using Graphpad Prism 6.0 (Graphpad Software, San Diego, CA). Non-linear regression curve fitting program was used to calculate the half maximal inhibitory concentrations (IC50) on cortisol production. Effects of both compounds on the steroid profile were measured as absolute change compared to control and compared using the Student's t-test. When assessing differences between effects of both compounds, the percentage change was evaluated and compared in order to correct for differences in the vehicle treated control cells. Values of P<0.05 were considered statistically significant and data are presented as mean SEM.

[1] = test system: primary human adrenocortical carcinoma cultures; experiment: Cortisol production in primary adrenocortical carcinoma cultures; format: cell-based
Description: (§3) To obtain primary cultures, adrenal specimens (adrenocortical adenomas, adrenal hyperplasias and adrenocortical carcinomas) were collected after adrenalectomy at the department of Surgery, Erasmus University Medical Center, Rotterdam, the Netherlands, between April 2016 and May 2018. The study was conducted under guidelines that have been approved by the Medical Ethics Committee of the Erasmus Medical Center and informed consent was obtained from all patients. Immediately after surgery, specimens were minced into small pieces of 2-3 mm^3, washed in culture medium and centrifuged for 5 minutes at 600 g. The tissue was stored overnight in culture medium at 4° C., where after the tissue was centrifuged again and the supernatant was removed. Fragments were dissociated using 10-25 ml collagenase type 1 (2 mg/ml: Sigma-Aldrich), followed by incubation at 37° C. for up to two hours. Ficoll (GE healthcare) density gradient separation was used once or twice as required in order to separate contaminating red blood cells from the tumor cells. Cell viability and cell amount were counted by trypan blue exclusion. Dissociated cells were plated at a density of 10^5 cells per well. ACTH-secreting corticotroph pituitary adenoma tissue from patients with Cushing's disease (n=2) was available after transsphenoidal surgery. Single-cell suspensions of the pituitary adenoma tissues were prepared as previously described in detail.
(§4) Owing to a limited number of cells obtained from the specimens, not all experiments were carried out in every primary culture.
as §1, §2

[2] = test system: ACTH independent hyperplasia cultures; experiment: Cortisol production in primary ACTH independent hyperplasia cultures; format: cell-based, human; conditions: ACTH independent hyperplasia no. 1, basal condition, 3 days
Description: as §3, with “ACTH-secreting corticotroph pituitary adenoma tissue from patients with Cushing's disease (n=2) was available after transsphenoidal surgery. Single-cell suspensions of the pituitary adenoma tissues were prepared as previously described in detail.” left out
as §1, with “Concentrations that were tested on the LC/MS-MS were closest to 50% inhibition or maximal inhibition of cortisol as determined by the immunoassay.” left out
Statistical analysis was performed using Graphpad Prism 6.0 (Graphpad Software, San Diego, CA). […] Effects of both compounds on the steroid profile were measured as absolute change compared to control and compared using the Student's t-test. […]

[3] = test system: cortisol-producing adrenal adenoma cultures; experiment: Cortisol production in primary cortisol-producing adrenal adenoma cultures; format: cell-based, human
Description: as §3, §4, §1, §2

[4] = HAC15, ACTH, 3 days, listed as LK

Structure (SMILES): CC(=O)N1CCN(c2ccc(OC[C@@H]3CO[C@@](Cn4ccnc4)(c4ccc(Cl)cc4Cl)O3)cc2)CC1 (relative stereo) [levoketoconazole, 2S,4R cis-1-acetyl-4-[4-[[2-(2,4-dichlorophenyl)-2-(1H-imidazol-1-ylmethyl)-1,3-dioxolan-4-yl]methoxyl]phenyl]piperazine]
- total sum of decrease of steroids (HAC15 cells; HAC15, ACTH): −2,811 nmol/L
- 11-DOC absolute change vs ACTH stimulation with vehicle (HAC15 cells; HAC15, ACTH, 3 days): -1524 nmol/L
- 11-DOC percentage change vs ACTH stimulation with vehicle (HAC15 cells; HAC15, ACTH, 3 days): −47%
- 17-OHP absolute change vs ACTH stimulation with vehicle (HAC15 cells; HAC15, ACTH, 3 days): -24.73 nmol/L
- 17-OHP percentage change vs ACTH stimulation with vehicle (HAC15 cells; HAC15, ACTH, 3 days): (−47%)
- Androstenedione absolute change vs ACTH stimulation with vehicle (HAC15 cells; HAC15, ACTH, 3 days): -943.7 nmol/L
- Androstenedione percentage change vs ACTH stimulation with vehicle (HAC15 cells; HAC15, ACTH, 3 days): (−52%)
- Corticosterone absolute change vs ACTH stimulation with vehicle (HAC15 cells; HAC15, ACTH, 3 days): -1.063 nmol/L
- Corticosterone percentage change vs ACTH stimulation with vehicle (HAC15 cells; HAC15, ACTH, 3 days): (−36%)
- Cortisol absolute change vs ACTH stimulation with vehicle (HAC15 cells; HAC15, ACTH, 3 days): -13.81 nmol/L
- Cortisol percentage change vs ACTH stimulation with vehicle (HAC15 cells; HAC15, ACTH, 3 days): −31%
- DHEA absolute change vs ACTH stimulation with vehicle (HAC15 cells; HAC15, ACTH, 3 days): -13.81 nmol/L
- DHEA percentage change vs ACTH stimulation with vehicle (HAC15 cells; HAC15, ACTH, 3 days): (−31%)
- DHEAS absolute change vs ACTH stimulation with vehicle (HAC15 cells; HAC15, ACTH, 3 days): -250.1 nmol/L
- DHEAS percentage change vs ACTH stimulation with vehicle (HAC15 cells; HAC15, ACTH, 3 days): (−43%)
- Prog absolute change vs ACTH stimulation with vehicle (HAC15 cells; HAC15, ACTH, 3 days): -2.163 nmol/L
- Prog percentage change vs ACTH stimulation with vehicle (HAC15 cells; HAC15, ACTH, 3 days): (−64%)
- Testosterone absolute change vs ACTH stimulation with vehicle (HAC15 cells; HAC15, ACTH, 3 days): -30.52 nmol/L
- Testosterone percentage change vs ACTH stimulation with vehicle (HAC15 cells; HAC15, ACTH, 3 days): (−71%)
- 11-DOC absolute change vs ACTH stimulation with vehicle (HAC15 cells; [4]): -1524 nmol/L
- 11-DOC percentage change vs ACTH stimulation with vehicle (HAC15 cells; [4]): (−47%)
- Cortisol absolute change vs ACTH stimulation with vehicle (HAC15 cells; [4]): -21.80 nmol/L
- Cortisol percentage change vs ACTH stimulation with vehicle (HAC15 cells; [4]): (−65%)
- 11-DOC absolute change vs control (HAC15 cells; HAC15, Basal, 3 days): -1129 nmol/L
- 11-DOC percentage change vs control (HAC15 cells; HAC15, Basal, 3 days): (−48%)
- 17-OHP absolute change vs control (HAC15 cells; HAC15, Basal, 3 days): -26.89 nmol/L
- 17-OHP percentage change vs control (HAC15 cells; HAC15, Basal, 3 days): (−57%)
- Androstenedione absolute change vs control (HAC15 cells; HAC15, Basal, 3 days): -1105 nmol/L
- Androstenedione percentage change vs control (HAC15 cells; HAC15, Basal, 3 days): (−56%)
- Corticosterone absolute change vs control (HAC15 cells; HAC15, Basal, 3 days): -0.2938 nmol/L
- Corticosterone percentage change vs control (HAC15 cells; HAC15, Basal, 3 days): (−39%)
- Cortisol absolute change vs control (HAC15 cells; HAC15, Basal, 3 days): -16.36 nmol/L
- Cortisol percentage change vs control (HAC15 cells; HAC15, Basal, 3 days): (−69%)
- DHEA absolute change vs control (HAC15 cells; HAC15, Basal, 3 days): -31.04 nmol/L
- DHEA percentage change vs control (HAC15 cells; HAC15, Basal, 3 days): (−44%)
- DHEAS absolute change vs control (HAC15 cells; HAC15, Basal, 3 days): -658.6 nmol/L
- DHEAS percentage change vs control (HAC15 cells; HAC15, Basal, 3 days): (−56%)
- Prog absolute change vs control (HAC15 cells; HAC15, Basal, 3 days): -0.9125 nmol/L
- Prog percentage change vs control (HAC15 cells; HAC15, Basal, 3 days): (−55%)
- Testosterone absolute change vs control (HAC15 cells; HAC15, Basal, 3 days): -39.19 nmol/L
- Testosterone percentage change vs control (HAC15 cells; HAC15, Basal, 3 days): (−64%)
- total sum of decrease of steroids (HAC15 cells; HAC15, basal): −3,007 nmol/L
- IC50 ([1]; ACC no. 1, basal condition, 3 days, read-out: IC50 inhibition of cortisol production): 5.78 nM
- IC50 ([1]; ACC no. 2, basal condition, 3 days, read-out: IC50 inhibition of cortisol production): 57.1 nM
- IC50 ([1]; ACC no. 3, ACTH (85 μM) stimulated condition, 3 days, read-out: IC50 inhibition of cortisol production): 32.1 nM
- IC50 ([1]; ACC no. 3, basal condition, 3 days, read-out: IC50 inhibition of cortisol production): 73.1 nM
- IC50 ([1]; basal condition, ACC (n=3), read-out: mean IC50 cortisol production): 38.3 nM
- IC50 inhibition of cortisol production [2]: Ambiguous
- IC50 ([3]; CPA no. 1, basal condition, 3 days, read-out: IC50 inhibition of cortisol production): 116 nM
- IC50 ([3]; CPA no. 2, basal condition, 3 days, read-out: IC50 inhibition of cortisol production): 125 nM
- IC50 ([3]; CPA no. 3, basal condition, 3 days, read-out: IC50 inhibition of cortisol production): 140 nM
- IC50 ([3]; CPA no. 4, basal condition, 3 days, read-out: IC50 inhibition of cortisol production): 63.1 nM
- IC50 ([3]; basal condition, ACA (n=4), read-out: mean IC50 cortisol production): 110 nM
